Source: patent US20250092064A1, “BENZOTRIAZOLE COMPOUND” (DAIICHI SANKYO COMPANY, LIMITED, priority 2022, published 2025)
pIC50: −log10 of the molar value.

Legend:
[1] = biological target: binding between Nrf2 and Keap1 (Homo sapiens (Human), UniProt Q14145); assay: FP assay (in vitro): inhibition of Nrf2-Keap1 binding by fluorescence polarization; conditions: GST-fused human Keap1 (325-642) 20 nM, FITC-labeled Nrf2 peptide 10 nM, 2 hr at room temperature
[2] = system: NQO1 activity in Hepa1c1c7 cells; assay: NAD(P)H: quinone oxidoreductase-1 (NQO1) enzyme induction assay (in vitro); type: cell-based, mouse; conditions: Mus musculus, Hepa-1c1c7, NQO1 activity with 400 nM test compound as a ratio from the base without compound, about 48 hr
Method in brief: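 Mouse Hepa1c1c7 hepatoma cells treated 48 hr with 400 nM compound (final). NQO1 activity in lysates read by absorbance at 610 nm; value is background-subtracted activity ratio versus untreated cells.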

Sequence of binding between Nrf2 and Keap1 (Q14145 325-624 limits assumed): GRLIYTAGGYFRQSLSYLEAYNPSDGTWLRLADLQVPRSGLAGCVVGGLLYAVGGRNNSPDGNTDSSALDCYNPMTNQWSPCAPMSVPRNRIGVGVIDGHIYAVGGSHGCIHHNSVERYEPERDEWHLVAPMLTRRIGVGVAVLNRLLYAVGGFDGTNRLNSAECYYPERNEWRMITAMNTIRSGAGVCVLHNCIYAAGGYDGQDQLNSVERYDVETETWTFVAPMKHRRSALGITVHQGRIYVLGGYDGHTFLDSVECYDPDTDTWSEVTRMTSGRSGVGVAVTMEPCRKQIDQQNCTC

Compound | pIC50 [1] | fold induction at 0.4 µM [2]
CC[C@@H]1CN(Cc2cc([C@@H](CC(=O)O)c3cc(Cl)c4c(nnn4C)c3C)cc3ccsc23)S(=O)(=O)c2cc(Cl)cnc2O1 [Example 31, (3R)-3-(7-Chloro-1,4-dimethyl-1H-benzotriazol-5-yl)-3-(7-{[(4R)-8-chloro-4-ethyl-1,1-dioxido-3,4-dihydro-2H-pyrido[2,3-b][1,4,5]oxathiazepin-2-yl]methyl}-1-benzothiophen-5-yl)propanoic acid] | ≥ 8.00 | > 5
CC[C@@H]1CN(Cc2cc([C@@H](CC(=O)O)c3cc(OC(F)F)c4c(nnn4C)c3C)cc3ccsc23)S(=O)(=O)c2cc(Cl)cnc2O1 [Example 32, (3R)-3-(7-{[(4R)-8-Chloro-4-ethyl-1,1-dioxido-3,4-dihydro-2H-pyrido[2,3-b][1,4,5]oxathiazepin-2-yl]methyl}-1-benzothiophen-5-yl)-3-[7-(difluoromethoxy)-1,4-dimethyl-1H-benzotriazol-5-yl]propanoic acid] | ≥ 8.00 | > 5
Cc1c(C(CC(=O)O)c2cc3c(c(CN4CC(C)(C)Oc5ncccc5S4(=O)=O)c2)CCC3)ccc2c1nnn2C (centres unmarked) [Example 34, 3-(1,4-Dimethyl-1H-benzotriazol-5-yl)-3-{7-[(4,4-dimethyl-1,1-dioxido-3,4-dihydro-2H-pyrido[2,3-b][1,4,5]oxathiazepin-2-yl)methyl]-2,3-dihydro-1H-inden-5-yl}propanoic acid] | 7.52 to 8.00 | > 5
CC[C@@H]1CN(Cc2cc([C@@H](CC(=O)O)c3cc(C4CC4)c4c(nnn4C)c3C)cc3ccsc23)S(=O)(=O)c2cc(Cl)cnc2O1 [Example 37, (3R)-3-(7-{[(4R)-8-Chloro-4-ethyl-1,1-dioxido-3,4-dihydro-2H-pyrido[2,3-b][1,4,5]oxathiazepin-2-yl]methyl}-1-benzothiophen-5-yl)-3-(7-cyclopropyl-1,4-dimethyl-1H-benzotriazol-5-yl)propanoic acid] | ≥ 8.00 | 3 to 5
CC[C@@H]1CN(Cc2cc([C@@H](c3ccc4c(nnn4C)c3C)C(C)(C)C(=O)O)cc3c2CCC3)S(=O)(=O)c2cc(Cl)cnc2O1 [Example 38, (3S)-3-(7-{[(4R)-8-Chloro-4-ethyl-1,1-dioxido-3,4-dihydro-2H-pyrido[2,3-b][1,4,5]oxathiazepin-2-yl]methyl}-2,3-dihydro-1H-inden-5-yl)-3-(1,4-dimethyl-1H-benzotriazol-5-yl)-2,2-dimethylpropanoic acid] | ≥ 8.00 | > 5
CC[C@@H]1CN(Cc2cc([C@@H](CC(=O)O)c3cc(C4CC4)c4c(nnn4C)c3C)cc3c2CCC3)S(=O)(=O)c2cc(Cl)cnc2O1 [Example 39, (3R)-3-(7-{[(4R)-8-Chloro-4-ethyl-1,1-dioxido-3,4-dihydro-2H-pyrido[2,3-b][1,4,5]oxathiazepin-2-yl]methyl}-2,3-dihydro-1H-inden-5-yl)-3-(7-cyclopropyl-1,4-dimethyl-1H-benzotriazol-5-yl)propanoic acid] | 7.52 to 8.00 | 3 to 5
CC[C@@H]1CN(Cc2cc([C@H](CC(=O)O)c3cc(C4CC4)c4c(nnn4C)c3C)cc3c2CCC3)S(=O)(=O)c2cc(Cl)cnc2O1 [Example 40, (3S)-3-(7-{[(4R)-8-Chloro-4-ethyl-1,1-dioxido-3,4-dihydro-2H-pyrido[2,3-b][1,4,5]oxathiazepin-2-yl]methyl}-2,3-dihydro-1H-inden-5-yl)-3-(7-cyclopropyl-1,4-dimethyl-1H-benzotriazol-5-yl)propanoic acid] | 7.52 to 8.00 | 3 to 5
CC[C@@H]1CN(Cc2cc([C@H](CC(=O)O)c3cc(C4CC4)c4c(nnn4C)c3C)cc3ccsc23)S(=O)(=O)c2cc(Cl)cnc2O1 [Example 41, (3S)-3-(7-{[(4R)-8-Chloro-4-ethyl-1,1-dioxido-3,4-dihydro-2H-pyrido[2,3-b][1,4,5]oxathiazepin-2-yl]methyl}-1-benzothiophen-5-yl)-3-(7-cyclopropyl-1,4-dimethyl-1H-benzotriazol-5-yl)propanoic acid] | ≥ 8.00 | > 5
Cc1c([C@H](CC(=O)O)c2cc3c(c(CN4CC5(CC5)Oc5ncc(Cl)cc5S4(=O)=O)c2)CCC3)ccc2c1nnn2C [Example 42, (3R)-3-{7-[(8′-Chloro-1′,1′-dioxido-spiro[cyclopropane-1,4′-pyrido[2,3-b][1,4,5]oxathiazepine]-2′(3′H)-yl)methyl]-2,3-dihydro-1H-inden-5-yl}-3-(1,4-dimethyl-1H-benzotriazol-5-yl)propanoic acid] | ≥ 8.00 | > 5
Cc1c([C@@H](CC(=O)O)c2cc3c(c(CN4CC5(CC5)Oc5ncc(Cl)cc5S4(=O)=O)c2)CCC3)ccc2c1nnn2C [Example 43, (3S)-3-{7-[(8′-Chloro-1′,1′-dioxido-spiro[cyclopropane-1,4′-pyrido[2,3-b][1,4,5]oxathiazepine]-2′(3′H)-yl)methyl]-2,3-dihydro-1H-inden-5-yl}-3-(1,4-dimethyl-1H-benzotriazol-5-yl)propanoic acid] | ≥ 8.00 | > 5
CC[C@@H]1CN(Cc2cc([C@@H](CC(=O)O)c3cc(C)c4c(nnn4C)c3C)cc3c2CCC3)S(=O)(=O)c2cc(Cl)cnc2O1 [Example 44, (3R)-3-(7-{[(4R)-8-Chloro-4-ethyl-1,1-dioxido-3,4-dihydro-2H-pyrido[2,3-b][1,4,5]oxathiazepin-2-yl]methyl}-2,3-dihydro-1H-inden-5-yl)-3-(1,4,7-trimethyl-1H-benzotriazol-5-yl)propanoic acid] | ≥ 8.00 | 3 to 5
CC[C@@H]1CN(Cc2cc([C@@H](CC(=O)O)c3cc(OC(F)(F)F)c4c(nnn4C)c3C)cc3ccsc23)S(=O)(=O)c2cc(Cl)cnc2O1 [Example 45, (3R)-3-(7-{[(4R)-8-Chloro-4-ethyl-1,1-dioxido-3,4-dihydro-2H-pyrido[2,3-b][1,4,5]oxathiazepin-2-yl]methyl}-1-benzothiophen-5-yl)-3-[1,4-dimethyl-7-(trifluoromethoxy)-1H-benzotriazol-5-yl]propanoic acid] | ≥ 8.00 | > 5
CC[C@@H]1CN(Cc2cc([C@H](CC(=O)O)c3cc(OC(F)(F)F)c4c(nnn4C)c3C)cc3ccsc23)S(=O)(=O)c2cc(Cl)cnc2O1 [Example 46, (3S)-3-(7-{[(4R)-8-Chloro-4-ethyl-1,1-dioxido-3,4-dihydro-2H-pyrido[2,3-b][1,4,5]oxathiazepin-2-yl]methyl}-1-benzothiophen-5-yl)-3-[1,4-dimethyl-7-(trifluoromethoxy)-1H-benzotriazol-5-yl]propanoic acid] | 7.52 to 8.00 | 3 to 5
CC[C@@H]1CN(Cc2cc([C@@H](CC(=O)O)c3ccc4c(nnn4C)c3C)cc3c2CCC3)S(=O)(=O)c2cc(C)cnc2O1 [Example 47, (3R)-3-(1,4-Dimethyl-1H-benzotriazol-5-yl)-3-(7-{[(4R)-4-ethyl-8-methyl-1,1-dioxido-3,4-dihydro-2H-pyrido[2,3-b][1,4,5]oxathiazepin-2-yl]methyl}-2,3-dihydro-1H-inden-5-yl)propanoic acid] | ≥ 8.00 | 3 to 5
CC[C@@H]1CN(Cc2cc([C@@H](CC(=O)O)c3ccc4c(nnn4C)c3C)cc3c2CCC3)S(=O)(=O)c2cccc(Cl)c2O1 [Example 48, (3R)-3-(7-{[(4R)-6-Chloro-4-ethyl-1,1-dioxido-3,4-dihydro-2H-5,1,2-benzoxathiazepin-2-yl]methyl}-2,3-dihydro-1H-inden-5-yl)-3-(1,4-dimethyl-1H-benzotriazol-5-yl)propanoic acid] | ≥ 8.00 | > 5
CC[C@@H]1CN(Cc2cc(C(CC(=O)O)c3cc(C4CC4)c4c(nnn4C)c3C)cc3ccsc23)S(=O)(=O)c2cc(Cl)cnc2O1 (stereo partly drawn) [Example 49, 3-(7-{[(4R)-8-Chloro-4-ethyl-1,1-dioxido-3,4-dihydro-2H-pyrido[2,3-b][1,4,5]oxathiazepin-2-yl]methyl}-1-benzothiophen-5-yl)-3-(7-cyclopropyl-1,4-dimethyl-1H-benzotriazol-5-yl)propanoic acid] | 7.00 to 7.52 | > 5
CC[C@@H]1CN(Cc2cc(C(CC(=O)O)c3cc(OC)c4c(nnn4C)c3C)cc3ccsc23)S(=O)(=O)c2cc(Cl)cnc2O1 (stereo partly drawn) [Example 50, 3-(7-{[(4R)-8-Chloro-4-ethyl-1,1-dioxido-3,4-dihydro-2H-pyrido[2,3-b][1,4,5]oxathiazepin-2-yl]methyl}-1-benzothiophen-5-yl)-3-(7-methoxy-1,4-dimethyl-1H-benzotriazol-5-yl)propanoic acid] | 7.52 to 8.00 | > 5
CC[C@@H]1CN(Cc2cc(C(CC(=O)O)c3cc(Cl)c4c(nnn4C)c3C)cc3ccsc23)S(=O)(=O)c2cc(Cl)cnc2O1 (stereo partly drawn) [Example 51, 3-(7-Chloro-1,4-dimethyl-1H-benzotriazol-5-yl)-3-(7-{[(4R)-8-chloro-4-ethyl-1,1-dioxido-3,4-dihydro-2H-pyrido[2,3-b][1,4,5]oxathiazepin-2-yl]methyl}-1-benzothiophen-5-yl)propanoic acid] | 7.52 to 8.00 | 3 to 5
CC[C@@H]1CN(Cc2cc(C(CC(=O)O)c3cc(C#N)c4c(nnn4C)c3C)cc3ccsc23)S(=O)(=O)c2cc(Cl)cnc2O1 (stereo partly drawn) [Example 52, 3-(7-{[(4R)-8-Chloro-4-ethyl-1,1-dioxido-3,4-dihydro-2H-pyrido[2,3-b][1,4,5]oxathiazepin-2-yl]methyl}-1-benzothiophen-5-yl)-3-(7-cyano-1,4-dimethyl-1H-benzotriazol-5-yl)propanoic acid] | 7.52 to 8.00 | > 5
